Measured values published in patent US7208290B2, “Methods of co-expressing umami taste receptors and chimeric Gα15 variants” (Senomyx, Inc., priority 2002, dated 2007).

Target: T1, rat T1R1/T1R3 umami taste receptor (Rattus norvegicus, UniProt Q9Z0R8)
T1 construct: expressed in transfected cells; host or cells: HEK-293 cells, transient transfection, pEAK10 expression vector
T1 sequence (Q9Z0R8 20-840): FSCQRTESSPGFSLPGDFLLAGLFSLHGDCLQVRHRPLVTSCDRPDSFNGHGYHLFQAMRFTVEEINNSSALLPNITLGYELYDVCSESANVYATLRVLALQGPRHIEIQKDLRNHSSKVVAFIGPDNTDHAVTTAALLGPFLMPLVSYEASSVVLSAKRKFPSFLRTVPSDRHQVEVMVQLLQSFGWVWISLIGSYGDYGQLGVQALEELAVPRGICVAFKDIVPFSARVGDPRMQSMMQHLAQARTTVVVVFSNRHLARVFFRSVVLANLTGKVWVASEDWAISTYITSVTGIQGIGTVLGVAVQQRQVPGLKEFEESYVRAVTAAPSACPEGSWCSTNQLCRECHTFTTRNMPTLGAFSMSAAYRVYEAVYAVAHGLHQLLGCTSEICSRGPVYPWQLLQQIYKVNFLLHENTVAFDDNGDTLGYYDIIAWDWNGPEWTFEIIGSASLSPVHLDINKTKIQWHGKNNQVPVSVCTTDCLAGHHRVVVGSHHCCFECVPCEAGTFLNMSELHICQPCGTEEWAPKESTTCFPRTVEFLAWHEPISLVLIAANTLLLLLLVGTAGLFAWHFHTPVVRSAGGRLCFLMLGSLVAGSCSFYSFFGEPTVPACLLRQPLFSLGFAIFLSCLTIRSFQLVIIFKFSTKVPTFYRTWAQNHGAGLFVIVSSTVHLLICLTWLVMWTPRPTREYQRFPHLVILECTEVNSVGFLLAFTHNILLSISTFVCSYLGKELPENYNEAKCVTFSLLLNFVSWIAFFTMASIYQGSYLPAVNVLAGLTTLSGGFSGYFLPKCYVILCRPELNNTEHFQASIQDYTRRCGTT
T1 sequence (Q923K1 21-858 partner): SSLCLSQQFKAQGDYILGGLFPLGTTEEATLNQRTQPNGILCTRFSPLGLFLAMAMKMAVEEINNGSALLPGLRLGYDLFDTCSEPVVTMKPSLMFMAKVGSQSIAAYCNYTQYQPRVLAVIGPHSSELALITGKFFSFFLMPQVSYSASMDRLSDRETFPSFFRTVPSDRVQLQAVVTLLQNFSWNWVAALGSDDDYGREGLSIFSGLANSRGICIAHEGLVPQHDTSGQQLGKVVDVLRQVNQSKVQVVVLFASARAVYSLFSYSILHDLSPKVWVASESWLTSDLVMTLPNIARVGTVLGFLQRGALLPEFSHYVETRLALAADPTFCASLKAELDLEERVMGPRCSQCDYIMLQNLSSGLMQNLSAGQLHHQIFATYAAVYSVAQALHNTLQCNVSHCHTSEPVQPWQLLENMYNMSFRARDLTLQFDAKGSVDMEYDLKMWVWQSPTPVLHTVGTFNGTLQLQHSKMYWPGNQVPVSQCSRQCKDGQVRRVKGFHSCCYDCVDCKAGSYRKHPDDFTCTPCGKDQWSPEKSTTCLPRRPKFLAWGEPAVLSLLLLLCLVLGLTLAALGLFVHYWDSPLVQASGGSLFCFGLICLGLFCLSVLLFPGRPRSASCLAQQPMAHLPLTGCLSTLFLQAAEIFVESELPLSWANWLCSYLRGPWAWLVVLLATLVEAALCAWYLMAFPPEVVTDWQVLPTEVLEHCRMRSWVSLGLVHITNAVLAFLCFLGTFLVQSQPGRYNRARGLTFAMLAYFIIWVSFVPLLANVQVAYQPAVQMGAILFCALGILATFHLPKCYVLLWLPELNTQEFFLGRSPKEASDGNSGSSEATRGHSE
Test: calcium imaging in HEK-293 cells transiently transfected with rat T1R1, T1R3 and Gα15 or Gα15/i1
Assay type: cell-based
Details: HEK-293 transiently transfected with rat T1R1, T1R3 and Gα15/i1; in the presence of 2.5 mM IMP
Procedure: Rat T1R2 and T1R3 expression constructs were generated using the pEAK10 expression vector (Edge Biosystems). (Rat T1R1, T1R2, and T1R3 nucleic acid sequences are described in U.S. Provisional Application No. 60/339,472, incorporated by reference in its entirety herein). HEK-293 cells were grown and maintained at 37° C. in Dulbecco's Modified Eagle Medium (DMEM) supplemented with 10% FBS and MEM non-essential amino acids (Gibco BRL). For calcium-imaging experiments, cells were first seeded onto 24-well tissue-culture plates (approximately 100,000 cells per well), and transfected using Mirus Translt-293 (PanVera). Transfection efficiencies, which were estimated by cotransfection with an RFP expression vector, were typically approximately 70%. […] Calcium mobilization was monitored on an Axiovert S100 microscope equipped with an inverted 10×/0.5 LWD piano fluor objective (Zeiss) and a cooled CCD camera (Princeton Instruments). Fluorescence images were acquired at 480 nm excitation and 535 nm emission, and analyzed with Imaging Workbench 4.0 software (Axon Instruments). T1R receptor activity was quantitated by counting the number of responding cells 30 seconds after stimulus addition. […]

Row | SMILES | response of cells (intracellular calcium increase, number of responding cells) to umami taste stimuli
1 | N[C@@H](CC(=O)O)C(=O)O [L-aspartate] | responded
2 | N[C@@H](CCC(=O)O)C(=O)O [L-glutamate] | responded
